By pIC50 is commonly meant −log10 of the IC50, conventionally taken in molar units. As usually defined, the inhibition in vivo is how much of the control response was suppressed. For orientation: solubility means the dissolved amount per volume that the medium holds.

pIC50: −log10 of the molar value. Converted amounts (≈) assume the structure as drawn.

The results in this text go back to ChEMBL document CHEMBL1146869 (Bioorg Med Chem Lett, 2006).

Data set [1] has as its system Rattus norvegicus. Briefly: Gastric toxicity in rat at 20 mg/kg, iv. Conditions: in vivo; call rule not given here. Also noted: dose 20 mg/kg, route intravenous. The format is organism-based.
For data set [2], the system named is Rattus norvegicus. In words: Gastric toxicity in rat at 40 mg/kg, iv. The format is organism-based. Set-up: dose 40 mg/kg, route intravenous. Conditions: in vivo.
For data set [3], the target named is T1, Prostaglandin G/H synthase 1 (Ovis aries, UniProt P05979).
T1 sequence (P05979 whole entry): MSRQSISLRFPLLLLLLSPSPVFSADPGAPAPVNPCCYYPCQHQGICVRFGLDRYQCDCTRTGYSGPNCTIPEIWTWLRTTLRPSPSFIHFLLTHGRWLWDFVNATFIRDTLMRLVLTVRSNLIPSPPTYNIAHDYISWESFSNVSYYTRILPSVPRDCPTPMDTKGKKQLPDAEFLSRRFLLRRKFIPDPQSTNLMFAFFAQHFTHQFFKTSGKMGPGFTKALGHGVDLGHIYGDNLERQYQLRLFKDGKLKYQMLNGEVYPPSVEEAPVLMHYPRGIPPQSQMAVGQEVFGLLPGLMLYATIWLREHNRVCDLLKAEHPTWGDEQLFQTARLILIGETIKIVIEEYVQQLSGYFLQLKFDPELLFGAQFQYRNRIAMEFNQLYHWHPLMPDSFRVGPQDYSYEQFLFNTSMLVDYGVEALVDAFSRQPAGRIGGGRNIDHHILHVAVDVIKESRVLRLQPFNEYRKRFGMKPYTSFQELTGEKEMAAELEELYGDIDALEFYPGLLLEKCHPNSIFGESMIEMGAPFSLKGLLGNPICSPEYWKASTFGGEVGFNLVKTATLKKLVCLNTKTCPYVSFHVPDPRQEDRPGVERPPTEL
In words: Inhibition of COX1. Also noted: species or system Homo sapiens.

For data set [4], the target named is T2, Prostaglandin G/H synthase 2 (Homo sapiens, UniProt P35354).
T2 sequence (P35354 whole entry): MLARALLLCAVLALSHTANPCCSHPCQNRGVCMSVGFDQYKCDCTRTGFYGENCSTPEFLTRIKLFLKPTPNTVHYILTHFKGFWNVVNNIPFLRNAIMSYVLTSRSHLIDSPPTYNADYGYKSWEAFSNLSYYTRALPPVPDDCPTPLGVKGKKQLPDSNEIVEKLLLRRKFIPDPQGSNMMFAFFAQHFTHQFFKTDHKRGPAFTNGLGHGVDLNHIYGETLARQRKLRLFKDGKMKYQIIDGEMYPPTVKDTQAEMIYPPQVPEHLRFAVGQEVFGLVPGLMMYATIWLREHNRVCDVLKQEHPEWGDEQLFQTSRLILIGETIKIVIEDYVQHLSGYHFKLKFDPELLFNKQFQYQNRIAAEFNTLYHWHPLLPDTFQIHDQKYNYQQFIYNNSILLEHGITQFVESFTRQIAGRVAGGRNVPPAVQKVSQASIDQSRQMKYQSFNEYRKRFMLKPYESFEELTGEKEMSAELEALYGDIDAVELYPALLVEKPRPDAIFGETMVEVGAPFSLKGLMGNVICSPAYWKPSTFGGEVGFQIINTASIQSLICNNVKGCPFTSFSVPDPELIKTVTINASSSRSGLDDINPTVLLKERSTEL

For data set [5], the system named is Rattus norvegicus. In words: Anti-inflammatory activity against carrageenan-induced paw edema in Sprague-Dawley rat at 3 mg/kg, iv after 3 hrs. The format is functional, organism-based. Also noted: dose 3 mg/kg, route intravenous. (In general: Carrageenan injected into the paw causes an acute inflammation.)
Data set [6] deals with Rattus norvegicus. Briefly: Anti-inflammatory activity against carrageenan-induced paw edema in Sprague-Dawley rat at 3 mg/kg, iv after 5 hrs. It is filed as functional, organism-based. Set-up: dose 3 mg/kg, route intravenous.
Data set [7] can be described thus: Aqueous solubility of the compound. It is filed as physicochemical. Conditions: water.

`O=C([O-])Cc1ccccc1Nc1c(Cl)cccc1Cl.[Na+]` [DICLOFENAC SODIUM]: the Activity in the data set on Rattus norvegicus [1] is on record as 22.8; in the data set on Rattus norvegicus [2] it was 51.5.

For `O=C1OCC(c2ccc(-c3nn[nH]n3)cc2)=C1c1ccccc1`, the results for the pIC50 in data set [3] and in data set [4] were 8.42 and 8.74, respectively. The results for the inhibition in vivo at 3 mg/kg with Rattus norvegicus [5] and with Rattus norvegicus [6] were 34.1% and 28%, respectively. Moreover, the Activity result with Rattus norvegicus [1] is listed as “Not Active”. Also, the concentration in solution in data set [7] (solubility) came to 125 mg/mL (≈ 411 mM).

For the compound `Cc1ccc(-c2cc(C(F)(F)F)nn2-c2ccc(-c3nnn[nH]3)cc2)cc1`, the values for the pIC50 in data set [3] and in data set [4] were 8.39 and 8.72, respectively. Moreover, the inhibition in vivo at 3 mg/kg in the data set on Rattus norvegicus [5] came to 40.2%; in the data set on Rattus norvegicus [6] it was 34.7%. Also, the Activity entry with Rattus norvegicus [1] is given as “Not Active”. Also, in data set [7], the concentration in solution (solubility) came to 100 mg/mL (≈ 270 mM).

For `CCC(=O)[N-]S(=O)(=O)c1ccc(-c2c(-c3ccccc3)noc2C)cc1.[Na+]` [PARECOXIB SODIUM], the inhibition in vivo at 3 mg/kg in the data set on Rattus norvegicus [5] was 62.8%; with Rattus norvegicus [6] it was 42%. Moreover, in the data set with Rattus norvegicus [2], the Activity entry is “Not Active”.
